The source of these data is patent US4661297A, “Basic ethers of 7-oxo-7H-benzo(c) fluorene and a process for their production” (SPOFA, spojene podniky pro zdravotnickou vyrobu, priority 1980, dated 1987).

The structures appear in SMILES notation. pIC50: −log10 of the molar value. Where a name gives a salt, the structure may show the parent alone. Read-outs that look alike come from different tables or passages of the source. Numbered stars: 1 amine (or outer) side, 2 acyl side, 3 side chain; on linkers, the order of the positions; unused ones are H or OH. Bridge positions count the residues as written; N and C are the ends. Square brackets hold non-standard residues; d marks the D form. Peptide text beside a SMILES is read from it. I, II: the chains in the order shown. Actinocin(9to1) = Cc1c2oc3c(C)ccc(C(=O)[*:1])c3nc-2c(C(=O)[*:2])c(N)c1=O; NMeV = CN[C@H](C(=O)O)C(C)C; Sar = CNCC(=O)O

Data set [1] concerns DNA, RNA and protein biosynthesis. In words: Effect on DNA, RNA and protein biosynthesis (substrate incorporation). It counts as cell-based. The source says: (§1) Thus, by way of exemplification, the IC^50 values (inhibitory concentration which lowered the initial rate of ^14 C incorporation to 50% of control) are shown in Table VI, below (Yoshida's Tumor, (U-^14 C) amino acid mixture)
The foregoing data clearly indicate that the compounds of the invention are potent inhibitors of DNA, RNA and protein biosynthesis. This is of significance because the suppression of tumor cells in a host is attained by inhibition of the biosynthesis of DNA, RNA and proteins.

The subject of data set [2] is Ehrlich's ascitic carcinoma. In words: Incorporation of 14C-adenine and 14C-valine into cellular fraction of Ehrlich's ascitic carcinoma in vitro. The settings on record: for Radioactivity incorporation, adenine: control 1060 cpm; for Radioactivity incorporation, valine: control 2455 cpm; for activity at 75 µM / activity at 150 µM / activity at 300 µM / activity at 600 µM / pIC50 / activity at 37.5 µM: Mus musculus, Ehrlich; for pIC50: in vitro. It counts as cell-based, mouse. The source says: In Table 4, the effect of Tiloron (NSC 143969; 2,7-bis-[2-(diethylamino)ethoxy]fluorene-9-one) and 5-(2-dimethylaminoethoxy)-7-oxo-7H-benzo(c) fluorene hydrochloride are compared on incorporation of ^14 C-adenine and ^14 C-valine with the cellular fraction of Ehrlich's ascitic carcinoma (insoluble in trichloacetic acid). The tests in vitro reveal that the composition of the invention was more than 10 times as effective as Tiloron. The inhibition of incorporation of adenine and valine into the used system of tumor cells is considered as an indication of an anti-tumorous, cytostatic action. This biological activity of the described compound is considerably greater than that of its congener Tiloron. (See also Table 4.)
Effects of Tiloron and substance 13468 on incorporation of ^14
C-adenine and ^14 C-valine
into cellular fraction of Ehrlichs ascitic carcinoma, insoluble in
in vitro. Radioactivity incorporation expressed in cpm.
IC50 = concentration inhibiting incorporation by 50 percent.

A further data set has as its system Yoshida's Tumor. In words: Inhibition of incorporation of labelled substrates in Yoshida's tumor. It counts as cell-based. The conditions noted are these: Rattus norvegicus, (U-14C) amino acid mixture, Table VI, read-out: IC50 (concentration lowering initial rate of 14C incorporation to 50% of control).
Text: Tumor growth may be observed clinically or in experiments in vivo, that is, with experimental animals, or in vitro, for example, in tissue cultures prepared from tumors. Assessment of tumor growth may be effected by measuring the weight of the tumor mass or, more effectively, by measuring the radioactivity after incorporation therein of certain substances of natural origin such as amino acids, adenine, thymidine and the like labelled with radioactive atoms such as ^14 C, ^3 H, etc.
as §1
The ^IC 50 values of compound 13468 are also shown in Table VII with varying substrates.

The next data set has as its system Yoshida's ascitic tumor. In words: Effect on course of transplanted Yoshida's ascitic tumor in rats. The conditions noted are these: days 1-5, Tables I and II, significant (&). It is filed as in vivo, rat (Wistar). The source says: (§2) The therapeutic effect of the described compounds on transplanted tumors in experimental animals is shown in Tables 1-3, on the following five pages.
(§3) &=statistically significant differences versus control at P=0.05
Y: Yoshida's ascitic tumor in Wistar rats

The test system of a further data set is La leukaemia. The data set can be described thus: Effect on course of transplanted La leukaemia in mice. It counts as in vivo, mouse (C57 Bl). The conditions noted are these: s.c. 1×300 mg/kg, day 3; significant (&).
Text: as §2, §3
La: La leukaemia in mice C57 Bl

A further data set is described as follows: Acute toxicity in mice. The settings on record: mouse, in vivo, sc; subcutaneously; mice S, males 22-24 gram. The source says:
The anti-tumor compounds described herein have also been studied from the standpoint of toxicity and the conclusion drawn that they are not toxic to mammalian hosts. The toxicological data set forth in Table IX, below, supports this conclusion.

The test system of data set [3] is HK: solid tumors, originally spontaneous mammary-gland adenocarcinoma. In words: Effect on course of transplanted HK solid mammary-gland adenocarcinoma in mice. It counts as in vivo, mouse (H). The conditions noted are these: s.c. 8×25 mg/kg, days 5-10,12,13.
Text: as §2, §3
HK: Solid tumors, originally spontaneous mammary-gland adenocarcinoma in H mice

Another data set deals with L1210 leukaemia. In words: Effect on course of transplanted L1210 leukaemia in mice. It counts as in vivo, mouse (hybrid DBA/H). The settings on record: s.c. 1×250 mg/kg, day 1; significant (&).
Text: as §2, §3
L1210 : Leukaemia growing in the form of ascitic tumors in hybrid DBA/H mice

In data set [1] (substrate (6-3H)uridine), `Cc1c2oc3c(C)ccc(C(=O)N[C@@H]4C(=O)N[C@H](C(C)C)C(=O)N5CCC[C@H]5C(=O)N(C)CC(=O)N(C)[C@@H](C(C)C)C(=O)O[C@@H]4C)c3nc-2c(C(=O)N[C@@H]2C(=O)N[C@H](C(C)C)C(=O)N3CCC[C@H]3C(=O)N(C)CC(=O)N(C)[C@@H](C(C)C)C(=O)O[C@@H]2C)c(N)c1=O` [Actinomycin D] (I: T[dV]P[Sar][NMeV] / II: T[dV]P[Sar][NMeV]; ester I:1-I:C, II:1-II:C; linker I:N-II:N via Actinocin(9to1)) returned an IC50 of 1.7 µg/mL.

For the compound `O=NN(CCCl)C(=O)NC1CCCCC1` [CCNU], the pIC50 in data set [1] (substrate L-(U-14C)amino-acid mixture) is 4.35.

`Nc1ccn([C@@H]2O[C@H](CO)[C@@H](O)[C@@H]2O)c(=O)n1` [Cytosine arabinoside]: the pIC50 was 5.70 in data set [1] (substrate (thymine-U-14C)-thymidine) and 3.37 in data set [1] (substrate L-(U-14)amino-acid).

Take `CCN(CC)CCOc1ccc2c(c1)C(=O)c1cc(OCCN(CC)CC)ccc1-2` [Tiloron, 2,7-bis-[2-(diethylamino)ethoxy]fluorene-9-one]: the “Radioactivity incorporation, adenine” value in data set [2] (75 μM) was 1252 cpm; in data set [2] (150 μM), 1096 cpm; in data set [2] (300 μM), 979 cpm; in data set [2] (600 μM) it was 563 cpm; in data set [2] (37,5 μM), 1160 cpm. Further, the “Radioactivity incorporation, valine” value in data set [2] (75 μM) turned out to be 2374 cpm; in data set [2] (150 μM) it was 2247 cpm; in data set [2] (300 μM), 2443 cpm; in data set [2] (600 μM) it was 1944 cpm; in data set [2] (37,5 μM) it was 2395 cpm. In addition, the activity at 75 µM is 118% in data set [2] (75 μM, read-out: Incorporation of adenine relative to control (0 μM = 100%)) and 97% in data set [2] (75 μM, read-out: Incorporation of valine relative to control (0 μM = 100%)). The activity at 150 µM in data set [2] (150 μM, read-out: Incorporation of adenine relative to control (0 μM = 100%)) was found to be 103%; in data set [2] (150 μM, read-out: Incorporation of valine relative to control (0 μM = 100%)), 92%. Moreover, the activity at 300 µM in data set [2] (300 μM, read-out: Incorporation of adenine relative to control (0 μM = 100%)) was found to be 92%; in data set [2] (300 μM, read-out: Incorporation of valine relative to control (0 μM = 100%)) it was 100%. The activity at 600 µM amounted to 53% in data set [2] (600 μM, read-out: Incorporation of adenine relative to control (0 μM = 100%)) and 79% in data set [2] (600 μM, read-out: Incorporation of valine relative to control (0 μM = 100%)). The pIC50 in data set [2] (14C-adenine, read-out: IC50 (concentration inhibiting incorporation by 50 percent), adenine) is 3.22; in data set [2] (14C-valine, read-out: IC50 (concentration inhibiting incorporation by 50 percent), valine) it was 3.22; with Yoshida's Tumor it was 3.81. For the same compound, the activity at 37.5 µM in data set [2] (37,5 μM, read-out: Incorporation of adenine relative to control (0 μM = 100%)) came to 109%; in data set [2] (37,5 μM, read-out: Incorporation of valine relative to control (0 μM = 100%)) it was 98%.

As to `CN(C)CC(C)(C)COc1cc2c(c3ccccc13)-c1ccccc1C2=O` [compound 13467, hydrochloride], the results for the “Survival time of animals with respect to geom. mean” value (in the data set with Yoshida's ascitic tumor (o. (oral) 5×100 mg/kg); in the data set on Yoshida's ascitic tumor (s.c. 5×50 mg/kg); in data set [3]) were 256%, 232% and 89%, respectively. Moreover, the “Survival time of animals with respect to median” value was 186% in the data set with La leukaemia and 135% in the data set with L1210 leukaemia. Besides, in the data set “Acute toxicity in mice”, the median lethal dose (LD50) came out at 550 mg/kg. Besides, the “Relative tumour size (% of control value)” value in data set [3] (assessed day 14, significant (&)) turned out to be 45%. For the same compound, the pIC50 with Yoshida's Tumor was 4.00.
